Measurements published in patent US8859617B2, “Use of furan alkyl for preparing an antidiabetic drug” (Laboratoires Expanscience, priority 2004, dated 2014).

Assays:
mice on HF/HS diet [1] = experiment: Weight of mice on HF/HS diet; format: in vivo; conditions: curative; TZD added to food
Method: (§1) We used adult mice (aged 6 weeks) of masculine gender fattened on a high fat/high sucrose diet (HF/HS). Feeding with the HF/HS diet began on mice aged 6 weeks and continued throughout the period of the study. The study was conducted along 2 axes: • prevention: the product was administered as soon as feeding began with the HF/HS diet; • management (curative): the product was administered 12 weeks after the start of the HF/HS diet. Total treatment time (preventive and curative): 23 weeks.
(§2) Each experimental group comprised 10 mice.

mice on HF/HS diet [2] = experiment: Blood parameters: plasma lipids (cholesterol, LDL, HDL, TG, FFA); format: in vivo
Method: as §1, §2
(§3) Subsequently the following were analysed: lipoprotein profile (by size exclusion chromatography); apolipoportein Al; lipid composition of the liver (liver triglycerides, cholesterol and free fatty acids); histological analysis of the liver and adipose tissue; staining of accumulated lipids in the liver.
The different cholesterol blood levels and different fractions were analysed using a HPLC method.

mice on HF/HS diet [3] = experiment: Plasma lipoprotein profile (size exclusion chromatography); format: in vivo; conditions: TZD
Method: as §1, §2, §3

mice on HF/HS diet [4] = experiment: Blood glucose and insulin analysis; format: in vivo
Method: as §1, §2, §3

mice on HF/HS diet [5] = experiment: Intraperitoneal Glucose Tolerance Test (IPGTT); format: in vivo; conditions: TZD; for Glucose resistance (IPGTT): preventive
Source text: Each study started at D-7 (i.e. 7 days before the start of the HF/HS diet) with an analysis of glucose tolerance using either an intra-peritoneal glucose tolerance test for some of the animals (n=5) or a sensitivity test to intravenous insulin for the other animals (n=5). At D=0 blood samples were taken to obtain basal condition values for all lipid and lipoprotein parameters, then the mice were randomly distributed irrespective of weight. The weight of each mouse and the quantity of food absorbed were measured twice a week. At weeks 3, 8, 15 and 23 the blood was collected after overnight fasting. At weeks 12 and 18 some of the animals (n=5) were subjected to an intra-peritoneal glucose tolerance test, the others (n=5) to a sensitivity test to intravenous insulin.
In addition this prevailing tolerance is often accompanied by insulin resistance. • Protocol: • fasted mice, • measurement of glycaemia at TO, • intra-peritoneal injection of glucose, • measurement of glycaemia 15, 30, 45, 60, 90, 120 and 180 min. after injection, • kinetics performed weeks 1, 12 and 18 in the preventive group and week 18 in the curative group.

mice on HF/HS diet [6] = experiment: Intra Peritoneal Insulin Sensitive Test (IPIST); format: in vivo; conditions: preventive
Source text: The HF/HS diet induces a strong resistance to glucose. […] The test used is the Intra Peritoneal Insulin Sensitive Test—IPIST.

mice on HF/HS diet [7] = experiment: Hepatic metabolism: transaminases and alkaline phosphatase (liver toxicity); format: in vivo; conditions: plasma; considered very moderate, does not appear to reflect liver toxicity
ACO (target PPARα) = experiment: mRNA analysis in the liver (Q-RT-PCR): ACO; format: in vivo, mice; conditions: TZD
Method: (§4) the liver, the mRNA expressions of 8 genes were determined in 5 mice of each group using real-time Q-RT-PCR analysis.

PEPCK (target PPARγ) = experiment: mRNA analysis in the liver (Q-RT-PCR): PEPCK; format: in vivo, mice; conditions: TZD
Method: as §4

CYP7A1 = experiment: mRNA analysis in the liver (Q-RT-PCR): CYP7A1; format: in vivo, mice; conditions: TZD
Method: as §4

[8] = test system: ME, FAS, ACC (fatty acid synthesis); experiment: mRNA analysis in the liver (Q-RT-PCR): ME, FAS, ACC; format: in vivo, mice; conditions: TZD
Method: as §4

[9] = test system: PGC-1 (mitochondria biogenesis); experiment: mRNA analysis in muscles and BAT: PGC-1; format: in vivo, mice; conditions: muscle; TZD
Method: In the brown adipose tissue (BAT) and in the muscles, the mRNA expression of 3 genes was determined in 5 mice of each group by real-time Q-RTR-PCR analysis.

[10] = curative, TZD 10 mg/kg/day, (3 W***)
[11] = curative, TZD, after 3 and 11 weeks
[12] = preventive, TZD 10 mg/kg/day, (3 W***)
[13] = preventive, TZD, after 3, 8, 15 and 23 weeks

Question: How did the “Weight loss of overweight mice” value (mice on HF/HS diet [1]) turn out when `CN(CCOc1ccc(CC2SC(=O)NC2=O)cc1)c1ccccn1` (stereo not shown) [TZD, Rosiglitazone] was run?
Answer: The value was “did not cause the overweight mice to lose weight”.

Question: And the Triglyceride level (mice on HF/HS diet [2]; curative, TZD)?
Answer: The Triglyceride level was “No change”.

Question: What about the LDL (mice on HF/HS diet [2]; curative, TZD 10 mg/kg/day) of the same compound?
Answer: Its LDL is “↓”.

Question: What about the HDL (mice on HF/HS diet [2]; [10]) of the same compound?
Answer: The HDL was “↓↓”.

Question: And the Total cholesterol (mice on HF/HS diet [2]; [10])?
Answer: The Total cholesterol was “↓↓”.

Question: And the HDL cholesterol level (mice on HF/HS diet [2]; [11])?
Answer: Its HDL cholesterol level is “reduction”.

Question: And the LDL cholesterol level (mice on HF/HS diet [2]; [11])?
Answer: Its LDL cholesterol level is “reduction”.

Question: And the Total cholesterol (mice on HF/HS diet [2]; [11])?
Answer: Its Total cholesterol is “reduction”.

Question: What about the LDL cholesterol level (mice on HF/HS diet [2]; preventive, TZD) of the same compound?
Answer: Its LDL cholesterol level is “downward trend”.

Question: What about the “TG (triglycerides)” value (mice on HF/HS diet [2]; preventive, TZD 10 mg/kg/day) of the same compound?
Answer: Its value is “↓”.

Question: And the HDL (mice on HF/HS diet [2]; [12])?
Answer: Its HDL is “↓↓”.

Question: What about the Total cholesterol (mice on HF/HS diet [2]; [12]) of the same compound?
Answer: Its Total cholesterol is “↓↓”.

Question: What about the HDL cholesterol level (mice on HF/HS diet [2]; [13]) of the same compound?
Answer: The HDL cholesterol level was “significant reduction”.

Question: And the Total cholesterol level (mice on HF/HS diet [2]; [13])?
Answer: Its Total cholesterol level is “significant reduction”.

Question: What about the “Plasma levels of triglycerides” value (mice on HF/HS diet [2]; preventive, TZD, after 8 weeks, no additional reduction after 15 and 23 weeks) of the same compound?
Answer: Its value is “significantly reduced”.

Question: And the “HDL and VLDL cholesterol fractions” value (mice on HF/HS diet [3]; curative, after 3 weeks)?
Answer: The value was “reduction”.

Question: And the “HDL, LDL and VLDL cholesterol fractions” value (mice on HF/HS diet [3]; preventive, weeks 8 and 15)?
Answer: The value was “reduction”.

Question: What about the GLUCOSE (mice on HF/HS diet [4]; curative, TZD 10 mg/kg/day, (3 W**)) of the same compound?
Answer: The GLUCOSE was “↓↓”.

Question: And the Glucose levels (mice on HF/HS diet [4]; [11])?
Answer: Its Glucose levels is “dropped considerably”.

Question: And the ““Constitutive” hyperglycaemia” value (mice on HF/HS diet [4]; preventive, TZD)?
Answer: Its value is “return to normal”.

Question: What about the GLUCOSE (mice on HF/HS diet [4]; preventive, TZD 10 mg/kg/day) of the same compound?
Answer: Its GLUCOSE is “↓”.

Question: What about the INSULIN (mice on HF/HS diet [4]; preventive, TZD 10 mg/kg/day) of the same compound?
Answer: Its INSULIN is “↓”.

Question: What about the Glucose level reduction (mice on HF/HS diet [4]; preventive, TZD, weeks 8, 15 and 23) of the same compound?
Answer: Its Glucose level reduction is “no longer observed”.

Question: And the “Already established, diet-induced glucose resistance” value (mice on HF/HS diet [5]; curative)?
Answer: Its value is “does not act”.

Question: What about the “Glucose resistance (IPGTT)” value (mice on HF/HS diet [5]; at 12 weeks) of the same compound?
Answer: Its value is “AUC value intermediate between HF/HS and normal diet”.

Question: What about the “Glucose resistance (IPGTT)” value (mice on HF/HS diet [5]; at 18 weeks, return to normal kinetics) of the same compound?
Answer: The value was “completely cancels out the effects of the HF/HS diet”.

Question: And the IPIST (mice on HF/HS diet [6]; TZD 10 mg/kg/day, (3 W***))?
Answer: The IPIST was “↓↓”.

Question: And the “Insulin sensitivity (IPIST)” value (mice on HF/HS diet [6]; TZD, (15 min))?
Answer: The value was “restores sensitivity to insulin”.

Question: What about the “Alkaline phosphatase (ALP)” value (mice on HF/HS diet [7]) of the same compound?
Answer: Its value is “increase”.

Question: What about the “ACO (target PPARα) mRNA” value (ACO (target PPARα)) of the same compound?
Answer: Its value is “↑”.

Question: And the “PEPCK (target PPARγ) mRNA” value (PEPCK (target PPARγ))?
Answer: The value was “↑”.

Question: What about the “CYP7A1 (conversion oxysterol into biliary acids) mRNA” value (CYP7A1) of the same compound?
Answer: Its value is “↑↑”.

Question: And the “ME, FAS, ACC (fatty acid synthesis) mRNA” value [8]?
Answer: The value was “↑↑”.

Question: And the “PGC-1 (mitochondria biogenesis) mRNA” value [9]?
Answer: Its value is “↑ (muscle)”.
